Assay: peptide partitioning from tryptophan fluorescence
Assay type: binding
Settings: for K (mole fraction partitioning coefficient) / RB ([P]B/[L]) / [P]W (peptide concentration in the water phase): Trp emission band analysis, after 1 h incubation, HBS pH 7.4, 37°C
Procedure: All hydrated samples were equilibrated for 1 h at 40°C followed by 5 freeze-and-thaw cycles using liquid N2 and intermittent vortex-mixing. Large unilamellar vesicles (LUVs) were obtained by 31 extrusions with a handheld mini extruder (Avanti Polar Lipids, Alabaster, AL) using a 100 nm pore diameter polycarbonate filter. Vesicle size and polydispersity were determined via DLS using a Zetasizer NANO ZSP (Malvern Panalytical, Malvern, UK). ANTS/DPX-containing vesicles were separated from free ANTS/DPX by exclusion chromatography using a column filled with SephadexTM G-75 (Amersham Biosciences, Little Chalfont, UK) fine gel swollen in iso-osmotic HBS. Phospholipid concentrations for all samples were determined by phosphate analysis.
Fluorescence emission from Trp, present in both peptides, was measured with the Cary Eclipse Fluorescence Spectrophotometer, setting the excitation wavelength to λ= 280 nm, which corresponds to the maximum intensity of the Trp absorption/excitation band. Intensities of exciting and emitting light were adjusted by setting the slit widths of both incident and outgoing beam to 5 or 10 nm, depending on the emission intensity, in order to optimize the signal-to-noise ratio. Emission spectra were background-subtracted to remove contributions originating from the instrument's baseline and scattered light from vesicles. All samples were measured in HBS at 37°C using a quartz cuvette, with a magnetic stirrer to prevent sample sedimentation in the case of aggregation. LUVs ([L] = 100 μM) were mixed with peptides ([P] = 2 and 4 μM), recording fluorescence spectra at various post-mixing time intervals ranging from 0.5 to 60 min. Peptide solutions were measured at concentrations of 2, 3, and 4 μM in order to calibrate their intensity dependence in buffer.
The fluorescence emission band was fitted with the log-normal-like function ([32], [33]) where λmax and I0 are, respectively, wavelength and intensity of the emission peak; Γ is the full-width-at-half-maximum (FWHM) of the band; α is a skewness parameter (fixed at an optimum values 1.36 after testing); and y = α/(α^2 − 1). Spectra from mixtures of LUVs and peptides were analyzed with a linear combination of two independent bands I^W and I^B, referring to AMPs in bulk (W) and partitioned into the lipid bilayer (B). λ^W and Γ^W were fixed to the reference values obtained by analyzing spectra from pure AMPs. Instead, I0W , I0B , λ^B, and Γ^B were adjustable parameters. The so obtained set of I0W values was converted to the concentration of dissociated peptides [P]W and further analyzed for peptide partitioning as detailed in section 2.3.1.
Following a previously reported thermodynamic formalism for the partitioning of peptides into lipid bilayers ([37]), based on the free energy of transfer of molecules from water into octanol ([38]), we define the mole fraction partitioning coefficient, K, as […]
(3) K=[P]B/([P]B+[L])/[P]W/([P]W+[W])≃[P]B[W]/[P]W[L], where [P]B is the molar concentration of peptides partitioned into the lipid phase; [P]W is the peptide concentration in the water phase; and [L] and [W] are, respectively, the molar concentrations of lipids and bulk water (55.5 M at 25°C and 55.3 M at 37°C). The approximation for K (Equation 3) is obtained applying [W] ≫ [PW] and [L] ≫ [PB] (similarly, the concentration of ions in water, i.e., buffer solutions, is negligible compared to [W]). By definition, the total concentration of peptides is [P] = [P]W + [P]B, thus leading to […]
(4) [P]=RB[W]/K︸[P]W+RB[L]︸[P]B=RB([W]/K+[L]),

[1] = POPE/POPG LUVs [L] = 100 μM, [P] = 2 μM
[2] = POPE/POPG LUVs [L] = 100 μM, [P] = 4 μM
[3] = POPE/POPG/TOCL LUVs [L] = 100 μM, [P] = 2 μM
[4] = POPE/POPG/TOCL LUVs [L] = 100 μM, [P] = 4 μM
[5] = POPG LUVs [L] = 100 μM, [P] = 2 μM
[6] = POPG LUVs [L] = 100 μM, [P] = 4 μM

Substance	K (mole fraction partitioning coefficient) [1]	RB ([P]B/[L]) [1]	[P]W (peptide concentration in the water phase) [1]	K (mole fraction partitioning coefficient) [2]	RB ([P]B/[L]) [2]	[P]W (peptide concentration in the water phase) [2]	K (mole fraction partitioning coefficient) [3]	RB ([P]B/[L]) [3]	[P]W (peptide concentration in the water phase) [3]	K (mole fraction partitioning coefficient) [4]	RB ([P]B/[L]) [4]	[P]W (peptide concentration in the water phase) [4]	K (mole fraction partitioning coefficient) [5]	RB ([P]B/[L]) [5]	[P]W (peptide concentration in the water phase) [5]	K (mole fraction partitioning coefficient) [6]	RB ([P]B/[L]) [6]	[P]W (peptide concentration in the water phase) [6]	membrane partitioning, times higher than for LF11-324 (POPE/POPG/TOCL lipid mixtures)
H-PFFWRIRIRR-NH2 [LF11-324, H-PFFWRIRIRR-NH2]	67 ± 4 ×10^4	11.0 ± 0.3 ×10^−3	0.90 ± 0.02 µM	47 ± 3 ×10^4	18.4 ± 0.6 ×10^−3	2.16 ± 0.06 µM	63 ± 4 ×10^4	10.6 ± 0.3 ×10^−3	0.95 ± 0.03 µM	111 ± 5 ×10^4	26.7 ± 0.4 ×10^−3	1.33 ± 0.04 µM	61 ± 4 ×10^4	10.5 ± 0.3 ×10^−3	0.95 ± 0.03 µM	20 ± 20 ×10^4	10.7 ± 0.9 ×10^−3	2.93 ± 0.09 µM	
H-FWRIRIRR-NH2 [LF11-215, H-FWRIRIRR-NH2]	70 ± 4 ×10^4	11.2 ± 0.3 ×10^−3	0.88 ± 0.03 µM	43 ± 3 ×10^4	17.5 ± 0.7 ×10^−3	2.25 ± 0.07 µM	82 ± 4 ×10^4	11.9 ± 0.2 ×10^−3	0.81 ± 0.02 µM	139 ± 6 ×10^4	28.6 ± 0.3 ×10^−3	1.14 ± 0.03 µM	161 ± 6 ×10^4	14.9 ± 0.3 ×10^−3	0.513 ± 0.015 µM	217 ± 8 ×10^4	31.9 ± 0.4 ×10^−3	0.81 ± 0.04 µM	~ 1.3 times

From paper PMC8757871, “Bridging the Antimicrobial Activity of Two Lactoferricin Derivatives in E. coli and Lipid-Only Membranes” (Frontiers in Medical Technology, 2021)
